The numbers were not newly measured in US6696084B2 (RTP Pharma Inc., priority 2000, dated 2004), which cites them from elsewhere.

The conditions of series [1]: oral administration with or without food.

As to `COCc1c(C(C)C)nc(C(C)C)c(/C=C/[C@@H](O)C[C@@H](O)CC(=O)O)c1-c1ccc(F)cc1` [Cerivastatin], the solubility in acetone result is listed as “very slightly soluble”, the solubility in ethanol entry is on record as “soluble”, the solubility in methanol entry was “soluble” and the solubility in water result was “soluble”. Further, the “food effect on absorption / uptake” value in series [1] is “not sensitive to a food effect”.

Consider `CC(C)n1c(/C=C/C(O)CC(O)CC(=O)O)c(-c2ccc(F)cc2)c2ccccc21` (stereo not drawn) [Fluvastatin], for which the solubility in ethanol entry was “soluble”, the solubility in methanol result was “soluble” and the solubility in water entry was “soluble”. Also, the “food effect on absorption / uptake” value in series [1] is reported as “reduces the rate but not the extent of absorption”.

Consider `CC[C@H](C)C(=O)O[C@H]1C[C@@H](C)C=C2C=C[C@H](C)[C@H](CC[C@@H]3C[C@@H](O)CC(=O)O3)[C@H]21` [Lovastatin], for which the solubility in acetonitrile result is on record as “sparingly soluble”, the solubility in ethanol result is on record as “sparingly soluble”, the solubility in methanol result was “sparingly soluble” and the solubility in water entry is listed as “insoluble”.

Take `CC[C@H](C)C(=O)O[C@H]1C[C@H](O)C=C2C=C[C@H](C)[C@H](CC[C@@H](O)C[C@@H](O)CC(=O)O)[C@H]21` [Pravastatin]: the solubility in acetone result is “practically insoluble” and the solubility in acetonitrile result is reported as “practically insoluble”. Further, the solubility in chloroform entry (chloroform) is given as “practically insoluble”. In addition, for the setting “ether”, the solubility in ether result is listed as “practically insoluble”. The solubility in isopropanol entry (isopropanol) was “slightly soluble”.
